{"source": "ChEMBL document CHEMBL3739262", "about": "“Flavones Inhibit the Activity of AKR1B10, a Promising Therapeutic Target for Cancer Treatment” (J Nat Prod, 2015)", "key": {"[1]": {"target": "T1, Aldo-keto reductase family 1 member B10 (Homo sapiens, UniProt O60218)", "assay": "Inhibition of recombinant human N-terminal His6-tagged AKR1B10 expressed in Escherichia coli BL21 cells using all-trans-retinal as substrate at 20 uM incubated for 15 mins by HPLC method"}, "[2]": {"target": "T1, Aldo-keto reductase family 1 member B10", "assay": "Inhibition of recombinant human AKR1B10 expressed in human HCT116 cells assessed as reduction in daunorubicinol production using daunorubicin as substrate at 20 uM incubated for 4 to 8 hrs by UHPLC based transient transfection assay", "format": "cell-based", "settings": "HCT-116"}, "[3]": {"target": "T1, Aldo-keto reductase family 1 member B10", "assay": "Inhibition of recombinant human AKR1B10 expressed in human HCT116 cells assessed as reduction in daunorubicinol production using daunorubicin as substrate at 10 uM incubated for 4 to 8 hrs by UHPLC based transient transfection assay", "format": "cell-based", "settings": "HCT-116"}, "[4]": {"target": "T1, Aldo-keto reductase family 1 member B10", "assay": "Inhibition of recombinant human N-terminal His6-tagged AKR1B10 expressed in Escherichia coli BL21 cells using all-trans-retinal as substrate incubated for 15 mins by HPLC method"}, "[5]": {"target": "Aldo-keto reductase family 1 member B1 (Homo sapiens, UniProt P15121)", "assay": "Inhibition of recombinant N-terminal His6-tagged AKR1B1 (unknown origin) expressed in Escherichia coli BL21 cells using all-trans-retinal as substrate incubated for 15 mins by HPLC method"}, "[6]": {"target": "T1, Aldo-keto reductase family 1 member B10", "assay": "Inhibition of recombinant human N-terminal His6-tagged AKR1B10 expressed in Escherichia coli BL21 cells using daunorubicin as substrate incubated for 20 mins by UHPLC method"}, "[7]": {"target": "T1, Aldo-keto reductase family 1 member B10", "assay": "Potency index, ratio of IC50 for flufenamic acid to IC50 for text compound for inhibition of recombinant human N-terminal His6-tagged AKR1B10 expressed in Escherichia coli BL21 cells using all-trans-retinal as substrate incubated for 15 mins by HPLC method"}, "[8]": {"assay": "Cytotoxicity against human HCT116 cells assessed as cell viability after 72 hrs by MTT assay", "format": "cell-based", "settings": "HCT-116, 72 h"}, "[9]": {"target": "T1, Aldo-keto reductase family 1 member B10", "assay": "Non-competitive inhibition of recombinant human N-terminal His6-tagged AKR1B10 expressed in Escherichia coli BL21 cells using all-trans-retinal as substrate incubated for 15 mins by Lineweaver-Burk plot analysis"}, "[10]": {"target": "T1, Aldo-keto reductase family 1 member B10", "assay": "Inhibition of recombinant human AKR1B10 expressed in human HCT116 cells assessed as reduction in daunorubicinol production using daunorubicin as substrate incubated for 4 to 8 hrs by UHPLC based transient transfection assay", "format": "cell-based", "settings": "HCT-116"}}, "note": "The source made the active and inactive calls. The calls are words filed in the database; no cut-off is given here.", "data": [{"compound": "COc1cc([C@H]2Oc3cc([C@H]4Oc5cc(O)c(O)cc5C(=O)[C@@H]4O)ccc3O[C@@H]2CO)ccc1O", "values": [{"measurement": "inhibition", "setting": "[1]", "result": "Active"}]}, {"compound": "COc1ccc([C@@H]2CC(=O)c3c(O)cc(O)cc3O2)cc1O", "values": [{"measurement": "inhibition", "setting": "[1]", "result": "Active"}]}, {"compound": "C[C@@H]1O[C@@H](OC[C@H]2O[C@@H](Oc3c(-c4ccc(O)c(O)c4)oc4cc(O)cc(O)c4c3=O)[C@H](O)[C@@H](O)[C@@H]2O)[C@H](O)[C@H](O)[C@H]1O", "values": [{"measurement": "inhibition", "setting": "[1]", "result": "Active"}]}, {"compound": "C[C@@H]1O[C@@H](Oc2c(-c3ccc(O)c(O)c3)oc3cc(O)cc(O)c3c2=O)[C@H](O)[C@H](O)[C@H]1O", "values": [{"measurement": "inhibition", "setting": "[1]", "result": "Active"}]}, {"compound": "O=C(/C=C/c1ccc(O)c(O)c1)O[C@@H]1C[C@](O)(C(=O)O)C[C@@H](O)[C@H]1O", "values": [{"measurement": "inhibition", "setting": "[1]", "result": "Active"}]}, {"compound": "O=C(CCc1ccc(O)cc1)c1c(O)cc(O)cc1O[C@@H]1O[C@H](CO)[C@@H](O)[C@H](O)[C@H]1O", "values": [{"measurement": "inhibition", "setting": "[1]", "result": "Active"}]}, {"compound": "O=C(O)/C=C/c1ccc(O)c(O)c1", "values": [{"measurement": "inhibition", "setting": "[1]", "result": "Active"}]}, {"compound": "O=C(O)c1ccc(O)cc1", "values": [{"measurement": "inhibition", "setting": "[1]", "result": "Active"}]}, {"compound": "O=C(O[C@@H]1Cc2c(O)cc(O)cc2O[C@@H]1c1cc(O)c(O)c(O)c1)c1cc(O)c(O)c(O)c1", "values": [{"measurement": "inhibition", "setting": "[1]", "result": "Active"}]}, {"compound": "O=C1CC(c2ccc(O)cc2)Oc2ccccc21", "note": "(stereo unspecified)", "values": [{"measurement": "inhibition", "setting": "[1]", "result": "Active"}]}, {"compound": "O=C1CC(c2ccccc2O)Oc2ccccc21", "note": "(stereo unspecified)", "values": [{"measurement": "inhibition", "setting": "[1]", "result": "Active"}]}, {"compound": "O=C1C[C@@H](c2ccc(O)cc2)Oc2cc(O)cc(O)c21", "values": [{"measurement": "inhibition", "setting": "[1]", "result": "Active"}]}, {"compound": "O=C1c2c(O)cc(O)cc2O[C@H](c2ccc(O)c(O)c2)[C@H]1O", "values": [{"measurement": "inhibition", "setting": "[1]", "result": "Active"}]}, {"compound": "O=c1c(O)c(-c2ccc(O)c(O)c2)oc2cc(O)cc(O)c12", "values": [{"measurement": "inhibition", "setting": "[2]", "result": 23, "unit": "%"}, {"measurement": "inhibition", "setting": "[1]", "result": "Active"}, {"measurement": "inhibition", "setting": "[3]", "result": 18, "unit": "%"}]}, {"compound": "O=c1c(O)c(-c2ccc(O)cc2O)oc2cc(O)cc(O)c12", "values": [{"measurement": "inhibition", "setting": "[1]", "result": "Active"}]}, {"compound": "O=c1c(O)c(-c2ccccc2)oc2ccccc12", "values": [{"measurement": "inhibition", "setting": "[1]", "result": "Active"}]}, {"compound": "O=c1cc(-c2ccc(O)cc2)oc2c([C@@H]3O[C@H](CO)[C@@H](O)[C@H](O)[C@H]3O)c(O)cc(O)c12", "values": [{"measurement": "inhibition", "setting": "[1]", "result": "Active"}]}, {"compound": "O=c1cc(-c2ccccc2)oc2cccc(O)c12", "values": [{"measurement": "inhibition", "setting": "[1]", "result": "Active"}]}, {"compound": "Oc1cc(O)c2c(c1)O[C@H](c1ccc(O)c(O)c1)[C@@H](O)C2", "values": [{"measurement": "inhibition", "setting": "[1]", "result": "Active"}]}, {"compound": "O=c1cc(-c2ccccc2)oc2cc(O)ccc12", "note": "[7-HYDROXYFLAVONE]", "values": [{"measurement": "IC50", "setting": "[4]", "result": 8.3, "unit": "µM"}, {"measurement": "inhibition", "setting": "[2]", "result": 19, "unit": "%"}, {"measurement": "IC50", "setting": "[5]", "result": 12.3, "unit": "µM"}, {"measurement": "IC50", "setting": "[6]", "result": 160, "unit": "µM"}, {"measurement": "inhibition", "setting": "[1]", "result": "Active"}, {"measurement": "Ratio IC50", "setting": "[7]", "result": 10}, {"measurement": "EC50", "setting": "[8]", "result": "> 50", "unit": "µM"}]}, {"compound": "O=c1cc(-c2ccc(O)cc2)oc2cc(O)cc(O)c12", "note": "[APIGENIN]", "values": [{"measurement": "IC50", "setting": "[4]", "result": 6.6, "unit": "µM"}, {"measurement": "inhibition", "setting": "[2]", "result": 34, "unit": "%"}, {"measurement": "IC50", "setting": "[5]", "result": 11.9, "unit": "µM"}, {"measurement": "IC50", "setting": "[6]", "result": 37.1, "unit": "µM"}, {"measurement": "inhibition", "setting": "[1]", "result": "Active"}, {"measurement": "Ratio IC50", "setting": "[7]", "result": 10}, {"measurement": "inhibition", "setting": "[3]", "result": 25, "unit": "%"}, {"measurement": "EC50", "setting": "[8]", "result": 23.8, "unit": "µM"}, {"measurement": "Ki", "setting": "[9]", "result": 6, "unit": "µM"}]}, {"compound": "COc1ccc(-c2coc3cc(O)cc(O)c3c2=O)cc1", "note": "[BIOCHANIN]", "values": [{"measurement": "IC50", "setting": "[4]", "result": 36.1, "unit": "µM"}, {"measurement": "IC50", "setting": "[5]", "result": 127, "unit": "µM"}, {"measurement": "inhibition", "setting": "[1]", "result": "Active"}]}, {"compound": "O=c1c(-c2ccc(O)cc2)coc2cc(O)ccc12", "note": "[DAIDZEIN]", "values": [{"measurement": "IC50", "setting": "[4]", "result": 32.2, "unit": "µM"}, {"measurement": "IC50", "setting": "[5]", "result": 162, "unit": "µM"}, {"measurement": "inhibition", "setting": "[1]", "result": "Active"}]}, {"compound": "O=C(O)c1ccccc1Nc1cccc(C(F)(F)F)c1", "note": "[FLUFENAMIC ACID]", "values": [{"measurement": "IC50", "setting": "[4]", "result": 96, "unit": "µM"}, {"measurement": "inhibition", "setting": "[10]", "result": "inactive"}, {"measurement": "inhibition", "setting": "[1]", "result": "Active"}]}, {"compound": "O=c1cc(-c2ccc(O)c(O)c2)oc2cc(O)cc(O)c12", "note": "[LUTEOLIN]", "values": [{"measurement": "IC50", "setting": "[4]", "result": 9.2, "unit": "µM"}, {"measurement": "inhibition", "setting": "[2]", "result": 33, "unit": "%"}, {"measurement": "IC50", "setting": "[6]", "result": 108, "unit": "µM"}, {"measurement": "inhibition", "setting": "[1]", "result": "Active"}, {"measurement": "EC50", "setting": "[8]", "result": 26.7, "unit": "µM"}]}]}
